Bridges are numbered along the chain shown (N, C = ends). Where no end group is shown, it is not given here.
Target: integrin receptors expressed on surface of U87MG glioblastoma cells (Homo sapiens, UniProt P05106+P06756)
Assay: U87MG competition binding assay

Sequence “ECESGPCCRNCKFLKEGTICKRARGDDMDDYCNGKTCDCPRNPHKGPAT (disulfide 2-11, 7-32, 8-37, 20-39 (inferred)) [echistatin]” has an IC50 of 3.3 ± 0.6 nM.

From publication PMC4143171 (Journal of nuclear medicine : official publication, Society …, 2010)
